# Legend:
# [1] = tested on: HCT-8; test: Growth inhibition against human colon carcinoma HCT-8 cell line; assay type: functional, cell-based
# [2] = tested on: L1210; test: Growth inhibition against mouse leukemia L1210 cell line; assay type: functional, cell-based
SMILES,IC50 [1],IC50 [2]
CC(=O)Oc1ccc2nc3c([N+](=O)[O-])ccc4c3c(c2c1)NN4CCCN(C)C,0.011 µM,0.001 µM
COc1ccc2c(c1)-c1nn(CCN(C)C)c3c([N+](=O)[O-])cc([N+](=O)[O-])c(c13)N2,0.015 µM,0.049 µM
CCN(CC)CCN1Nc2c3cc(OC(C)=O)ccc3nc3c([N+](=O)[O-])ccc1c23,0.005 µM,0.004 µM
CSc1ccc2c(c1)-c1nn(CCCN(C)C)c3ccc([N+](=O)[O-])c(c13)N2,0.352 µM,0.513 µM
CN(C)CCCN1Nc2c3cc(O)ccc3nc3c([N+](=O)[O-])ccc1c23,,0.002 µM
CCN(CC)CCN1Nc2c3cc(C)ccc3nc3c([N+](=O)[O-])ccc1c23,0.786 µM,0.863 µM
CCOc1ccc2c(c1)-c1nn(CCNCCO)c3ccc([N+](=O)[O-])c(c13)N2,0.082 µM,0.325 µM
CCN(CC)CCN1Nc2c3ccccc3nc3c([N+](=O)[O-])ccc1c23,0.185 µM,0.192 µM
Cc1ccc2c(c1)-c1nn(CCNCCO)c3ccc([N+](=O)[O-])c(c13)N2,0.255 µM,0.592 µM
CCN(CC)CCN1Nc2c3cc(OCc4ccccc4)ccc3nc3c([N+](=O)[O-])ccc1c23,1.14 µM,2.68 µM
CCN(CC)CCN1Nc2c3cc(OC)ccc3nc3c([N+](=O)[O-])cc([N+](=O)[O-])c1c23,0.066 µM,0.399 µM
COc1ccc2c(c1)-c1nn(CCNCCO)c3ccc([N+](=O)[O-])c(c13)N2,0.193 µM,0.45 µM
C=Cn1nc2c3c(c([N+](=O)[O-])ccc31)N(C)c1ccccc1-2,,> 10 µM
CCN(CC)CCN1Nc2c3cccc(OC)c3nc3c([N+](=O)[O-])ccc1c23,0.506 µM,0.645 µM
CCN(CC)CCN1Nc2c3ccccc3nc3c(NC(C)=O)ccc1c23,,> 10 µM
CN(C)CCCN1Nc2c3cc(OC(=O)C(C)(C)C)ccc3nc3c([N+](=O)[O-])ccc1c23,0.027 µM,0.008 µM
CCOc1ccc2c(c1)-c1nn(CCCN(C)C)c3ccc([N+](=O)[O-])c(c13)N2,0.055 µM,
CCN(CC)CCn1nc2c3c(c(/N=C/N(C)C)ccc31)N(C)c1ccccc1-2,0.297 µM,0.785 µM
COc1ccc2c(c1)-c1nn(CCCN(C)C)c3ccc([N+](=O)[O-])c(c13)N2 [PYRAZOLOACRIDINE],0.136 µM,0.424 µM
CN1c2ccccc2-c2nn(CCNCCO)c3ccc([N+](=O)[O-])c1c23,0.518 µM,0.51 µM
COc1ccc2c(c1)-c1nn(CCO)c3ccc([N+](=O)[O-])c(c13)N2,> 10 µM,> 10 µM
CN1Nc2c3ccccc3nc3c([N+](=O)[O-])ccc1c23,,> 10 µM

SMILES,IC50 [1],IC50 [2]
CCN(CC)CCN1Nc2c3cc(S(C)(=O)=O)ccc3nc3c([N+](=O)[O-])ccc1c23,0.774 µM,1.83 µM
CCN(CC)CCN1Nc2c3cc(N(C)C)ccc3nc3c([N+](=O)[O-])ccc1c23,0.317 µM,0.896 µM
CCN(CC)CCN1Nc2c3cc(OC(=O)C(C)(C)C)ccc3nc3c([N+](=O)[O-])ccc1c23,0.01 µM,0.01 µM
CCN(CC)CCn1nc2c3c(c([N+](=O)[O-])ccc31)N(C)c1ccc(OC)cc1-2,0.308 µM,0.605 µM
CCCOc1ccc2c(c1)-c1nn(CCN(CC)CC)c3ccc([N+](=O)[O-])c(c13)N2,0.031 µM,0.469 µM
CCN(CC)CCCN1Nc2c3cc(OC)ccc3nc3c([N+](=O)[O-])ccc1c23,0.764 µM,1.33 µM
CCOc1ccc2c(c1)-c1nn(CCN(CC)CC)c3ccc([N+](=O)[O-])c(c13)N2,0.114 µM,
CCCCOc1ccc2c(c1)-c1nn(CCNCCO)c3ccc([N+](=O)[O-])c(c13)N2,0.339 µM,0.646 µM
CCN(CC)CCN1Nc2c3cc(O[Si](C)(C)C(C)(C)C)ccc3nc3c([N+](=O)[O-])ccc1c23,0.006 µM,0.006 µM
O=[N+]([O-])c1ccc2c3c(c4ccccc4nc13)NN2CCO,,> 10 µM
CN(C)CCN1Nc2c3cc(N(C)C)ccc3nc3c([N+](=O)[O-])ccc1c23,0.164 µM,0.601 µM
C=CCN1c2ccccc2-c2nn(CCNCCO)c3ccc([N+](=O)[O-])c1c23,1.22 µM,2.71 µM
CCCCOc1ccc2c(c1)-c1nn(CCN(CC)CC)c3ccc([N+](=O)[O-])c(c13)N2,0.073 µM,1.18 µM
CCN(CC)CCn1nc2c3c(c([N+](=O)[O-])ccc31)N(C)c1ccccc1-2,0.901 µM,0.618 µM
CCN(CC)CCN1Nc2c3cc(OC)ccc3nc3c([N+](=O)[O-])ccc1c23,0.123 µM,0.469 µM
O=[N+]([O-])c1ccc2c3c(c4ccccc4nc13)NN2CCNCCO,0.152 µM,0.218 µM
CCNCCN1Nc2c3cc(OC)ccc3nc3c([N+](=O)[O-])ccc1c23,0.124 µM,0.208 µM
CCN(CC)CCN1c2ccccc2-c2nn(CCN(CC)CC)c3ccc([N+](=O)[O-])c1c23,0.788 µM,0.877 µM
CCN(CC)CCn1nc2c3c(c(N)ccc31)N(C)c1ccccc1-2,1.56 µM,> 10 µM
COc1ccc2c(c1)-c1nn(CCN(C)C)c3ccc([N+](=O)[O-])c(c13)N2,0.105 µM,0.396 µM
CCOc1ccc2c(c1)-c1nn(CCN(C)C)c3ccc([N+](=O)[O-])c(c13)N2,0.025 µM,0.275 µM

# — ChEMBL document CHEMBL1126892, “Comparative molecular field analysis of in vitro growth inhibition of L1210 and HCT-8 cells by some pyrazoloacridines” (J Med Chem, 1993)
